Measured values taken from article PMC5591945, “Novel Protein-Protein Inhibitor Based Approach to Control Plant Ethylene Responses: Synthetic Peptides for Ripening Control” (Frontiers in Plant Science, 2017).

Tests used:
[1] = system: Tomato fruits (Solanum lycopersicum L.) of the cultivar ‘Lyterno’; settings: in vivo
Source text: Tomato fruits (Solanum lycopersicum L.) of the cultivar ‘Lyterno’ (Rijk Zwaan, De Lier, Netherlands) were harvested at the maturity stage “green” (USDA; 2005) from tomato plants which where cultivated in a commercial-like greenhouse at the research station Campus Klein-Altendorf (University of Bonn, Germany). At the early development stages, the trusses were manually thinned to six fruits per truss, according to the common practice aiming standardized fruit size and quality. For the experiment, the last two fruits of the fourth truss, counted from the bottom, were chosen for evaluations. At the beginning of the experiment, […] showing similar color and size were divided into four treatments (n = 25 fruits per treatment). On each fruit, a transparent polyethylene film was placed at the equatorial zone to demark the four evaluation points of 2.8 cm diameter each.
The four treatments were as follows: (1) control; (2) NOP-1, 400 μM; (3) NOP-1, 1000 μM; (4) NOP-1, 2000 μM. The NOP-1 peptide (GenScript, Piscataway, NJ, United States) was dissolved in 5 ml deionized water. On each fruit, a total of 200 microdroplets (0.5 μL each) of the peptide solution were gently deposited (50 micro droplets on each marked area of the tomato fruit) with a Hamilton microdispenser (Hamilton Bonaduz AG, Bonaduz, Switzerland). […]

[2] = system: tomato fruits; settings: 2007, cited from earlier work; for ripening, lycopene synthesis and chlorophyll breakdown: AVG inhibits ethylene biosynthesis, 1-MCP inhibits ethylene response, ref Saltveit, 2005, Passam et al.; for drawbacks on fruit quality and maturation: in some cases, ref Passam et al.
Source text: Improving shelf life and nutritional quality of tomato fruits is difficult to achieve with the methods currently in use. Maintaining adequate storage conditions is expensive and might cause chilling injury if used improperly ([[…] et al., 2007]). Even though genetic modifications reducing gene expression of proteins involved in ethylene synthesis are possible in principle ([Abano and Buah, 2015]) these procedures are banned by law throughout Europe and have low acceptance among European consumers. Chemical methods such as application of AVG to inhibit ethylene biosynthesis or treatment with ...

[3] = molecular target: tomato ethylene receptor LeETR4 (tomato (Solanum lycopersicum)) (UniProt Q9XET8); assay: MST; 100 nM receptor labeled with Alexa Fluor 488-Maleimide titrated with unlabeled NOP-1 (500 μM to 61.04 nM) in 50 mM Tris-HCl pH 8.0, 300 mM NaCl; Monolith NT.115, 20% MST power (LeETR4) or 60% (NR); triplicate; apparent Kd
[4] = molecular target: T1, tomato ethylene receptor NR (NeverRipe) (tomato (Solanum lycopersicum), UniProt Q41341 1-635, labeled with Alexa Fluor 488-Maleimide); assay: as above; settings: both partners purified
T1 construct: Tomato ethylene receptor NR (NeverRipe), full-length codon optimized cDNA in pET16b; pET16b normally adds the deca-histidine tag and a factor Xa site at the N-terminus (surmised); Kept in 0.015% FosCholine-16; source: E. coli BL21 (DE3), solubilized with FosCholine-16, purified (HisTrap FF / Ni-NTA)
T1 sequence (looked up): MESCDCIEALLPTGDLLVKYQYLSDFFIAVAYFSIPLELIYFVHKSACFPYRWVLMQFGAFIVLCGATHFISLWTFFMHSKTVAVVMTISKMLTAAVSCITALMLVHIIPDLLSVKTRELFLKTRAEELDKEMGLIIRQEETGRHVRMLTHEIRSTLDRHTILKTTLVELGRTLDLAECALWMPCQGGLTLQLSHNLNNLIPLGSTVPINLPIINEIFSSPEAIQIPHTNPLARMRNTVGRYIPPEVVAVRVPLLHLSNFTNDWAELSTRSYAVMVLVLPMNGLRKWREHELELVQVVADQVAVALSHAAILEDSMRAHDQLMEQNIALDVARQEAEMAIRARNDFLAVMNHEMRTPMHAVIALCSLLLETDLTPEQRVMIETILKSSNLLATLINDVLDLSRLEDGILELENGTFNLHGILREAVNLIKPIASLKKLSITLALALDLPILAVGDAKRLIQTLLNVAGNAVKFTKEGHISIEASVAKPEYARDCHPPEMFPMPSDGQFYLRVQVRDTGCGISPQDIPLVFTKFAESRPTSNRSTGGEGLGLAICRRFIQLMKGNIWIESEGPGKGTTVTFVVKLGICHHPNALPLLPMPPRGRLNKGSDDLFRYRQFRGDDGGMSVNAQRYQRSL

Row | Molecule | effect on fruit quality [1] | ripening, lycopene synthesis and chlorophyll breakdown [2] | drawbacks on fruit quality and maturation [2] | Kd [3] [µM] | Kd [4] [µM]
1 | CC(C)C[C@H](NC(=O)[C@H](CCCNC(=N)N)NC(=O)[C@H](CCCNC(=N)N)NC(=O)[C@H](CCCCN)NC(=O)[C@H](Cc1ccc(O)cc1)NC(=O)[C@H](CCCNC(=N)N)NC(=O)[C@H](CCCCN)NC(=O)[C@@H](N)CC(C)C)C(=O)O [NOP-1] | no negative effects on fruit quality | – | – | – | –
2 | CC1=CC1 [1-MCP, 1-methylcyclopropene] | – | significantly delay ripening and slow down lycopene synthesis and chlorophyll breakdown | quality losses in taste development or to complete arrest in maturation | – | –
3 | NCCO/C=C/[C@H](N)C(=O)O [AVG, aminoethoxyvinylglycine] | – | significantly delay ripening and slow down lycopene synthesis and chlorophyll breakdown | quality losses in taste development or to complete arrest in maturation | – | –
4 | LKRYKRRL (Used unlabeled in MST; also called NLS-derived peptide; source: synthetic peptide (GenScript)) [NOP-1 octapeptide] | – | – | – | 4.15 | 23.5
